The record followed here is patent EP2818472A1, “Imidazo[4,5-c]pyridine and pyrrolo[3,2-c]pyridine compounds as G-protein-coupled receptor kinase 5 (GRK5) modulators” (Max-Planck-Gesellschaft zur Förderung der Wissenschaften …, priority 2013, dated 2014).

The test relates to beta-TC6 cells. The test can be described thus: Insulin HTRF assay (relative activity Ar) in beta-TC6 cells. In kind it is cell-based, mouse. Particulars: Mus musculus, Beta-TC6, 4 h, insulin HTRF, supernatant of beta-TC6 cells, incubation with test compound at 37°C for 2, 3, 4h; read-out: Ar (relative activity). The text has this: For further screening of compounds derived from compounds described above for their ability to regulate insulin release an insulin HTRF® (Homogeneous Time-Resolved Fluorescence; Cisbio International, France) was used. This assay is based on two antibodies against insulin binding to different epitopes of insulin. One of these antibodies is coupled to Europium (Ab-Eu-Cryptate) and the other one to the fluorophore XL665 (Ab-XL665). If the insulin is secreted into the supernatant of cell culture, both antibodies can bind to insulin and come therefore into close proximity, which allows upon excitation that energy transfer between (FRET) the long-life fluorescent donor Europium (cryptate) and the acceptors XL665. FRET increases proportionally with insulin concentration.
The automated assay protocol is as follows: • On day 1, 15k beta-TC6 cells per well were seeded for 24 or 48 h in 50 µL complete medium. On day 2 or respective on day 3, the medium is removed and cells are washed with 60 µL 1xPBS and 20 µL induction buffer is added using BioTek washer. Subsequently, 10 µL Sunitininb (5 -µM f.c.) or the test compound in induction buffer; 0.5% f.c. DMSO (CyBi-well) is transferred to the cells. The cells are then incubated at 37°C for 2, 3, 4h.
First 10 µL supernatant is transferred from the cell plates in HTRF plates (CyBi-well). 10 µL of 0, 1, 2, and 4 ng/ml insulin standard controls in assay medium is used as a control. To each well 10 µL of combined 1:25 Ab-XL665 (Acc) and 1:20 Ab-Eu-Cryptate (WellMate) are added and incubated for 120 min at RT in the dark. Finally HTRF is measured on ViewLux ultra high throughput microplate imager (PerkinElmer).
The evaluation software DataFactoty derives relative activities Ar according to the following equation: Ar = (V-R(0%control))/(R(100%control) -R0%control)) × 100 [formula]
The activity of the compounds was classified according to their Ar (relative activity) into the following ranges: […]
For `OC1CCC(Nc2nccc3[nH]c(-c4cccc(OC(F)(F)F)c4)nc23)CC1` (stereo not drawn) [Compound 443, 4-[[2-[3-(trifluoromethoxy)phenyl]-1H-imidazo[4,5-c]pyridin-4-yl]amino]cyclohexanol], the Emax lay in the range of 30 to 50%.

For the compound `COCCNc1nc2cnc(-c3ccc(OC)nc3)cc2n1C` [Compound 751, N-(2-methoxyethyl)-6-(6-methoxy-3-pyridyl)-1-methyl-imidazo[4,5-c]pyridin-2-amine], the Emax lay within 0 to 30%. To `Cn1c(NCC2CCCO2)nc2cnc(-c3cccc(Oc4ccccc4)c3)cc21` (stereo not drawn) [Compound 851, 1-methyl-6-(3-phenoxyphenyl)-N-(tetrahydrofuran-2-ylmethyl)imidazo[4,5-c]pyridin-2-amine] belongs 30 to 50%; to `CC(=O)Nc1ccc(Nc2cc3c(cn2)nc(Cc2ccccc2)n3C)cc1` [Compound 700, N-[4-[(2-benzyl-1-methyl-imidazo[4,5-c]pyridin-6-yl)amino]phenyl]acetamide], 50 to 100%; to `CNc1nc2cnc(-c3cccc(N(C)C)c3)cc2n1-c1cccc(F)c1` [Compound 683, 6-[3-(dimethylamino)phenyl]-1-(3-fluorophenyl)-N-methyl-imidazo[4,5-c]pyridin-2-amine], 30 to 50%. In the case of `FC(F)(F)c1cccc(-c2cc3c(Nc4cccnc4)nccc3[nH]2)c1` [Compound 196, N-(3-pyridyl)-2-[3-(trifluoromethyl)phenyl]-1H-pyrrolo[3,2-c]pyridin-4-amine] it was 50 to 100%; in that of `Fc1ccc(-c2nc3ccncc3[nH]2)cc1` [Compound 775, 2-(4-fluorophenyl)-3H-imidazo[4,5-c]pyridine], 0 to 30%; in that of `CN(C)C(=O)c1ccc(Nc2cc3c(cn2)cc(-c2cccnc2)n3C)cc1` [Compound 95, N,N-dimethyl-4-[[1-methyl-2-(3-pyridyl)pyrrolo[3,2-c]pyridin-6-yl]amino]benzamide], 50 to 100%. In the case of `FC(F)(F)c1cccc(-c2cc3c(cn2)ncn3-c2ccccc2)c1` [Compound 752, 1-phenyl-6-[3-(trifluoromethyl)phenyl]imidazo[4,5-c]pyridine] it was 0 to 30%. Take `Cn1c(Nc2ccccc2)nc2cnc(-c3ccc(N4CCOCC4)cc3)cc21` [Compound 630, 1-methyl-6-(4-morpholinophenyl)-N-phenyl-imidazo[4,5-c]pyridin-2-amine]: the Emax lay in the range of 50 to 100%. In the case of `CC(=O)Nc1cccc(Nc2cc3[nH]c(-c4cn[nH]c4)cc3cn2)c1` [Compound 117, N-[3-[[2-(1H-pyrazol-4-yl)-1H-pyrrolo[3,2-c]pyridin-6-yl]amino]phenyl]acetamide] it was greater than 100%. In the case of `Cn1c(NCc2ccccc2)nc2cnc(-c3cncnc3)cc21` [Compound 623, N-benzyl-1-methyl-6-pyrimidin-5-yl-imidazo[4,5-c]pyridin-2-amine] it was 30 to 50%. Consider `CN(C)c1ccc(-c2cc3cnc(Nc4cccc(O)c4)cc3n2Cc2ccccc2)cc1` [Compound 60, 3-[[1-benzyl-2-(4-dimethylaminophenyl)pyrrolo[3,2-c]pyridin-6-yl]amino]phenol], for which the Emax was in the range of 0 to 30%. To `CNc1nc2cnc(Nc3ccc(OC)cc3)cc2n1-c1cccc(F)c1` [Compound 685, 1-(3-fluorophenyl)-N6-(4-methoxyphenyl)-N2-methyl-imidazo[4,5-c]pyridine-2,6-diamine] belongs 50 to 100%. Consider `CN1CCN(c2ccc(Nc3cc4c(cn3)cc(-c3ccc(C(=O)N(C)C)cc3)n4C)cc2)CC1` [Compound 49, N,N-dimethyl-4-[1-methyl-6-[4-(4-methylpiperazin-1-yl)anilino]pyrrolo[3,2-c]pyridin-2-yl]benzamide], for which the Emax was 50 to 100%. To `COc1cccc(Nc2nccc3[nH]c(-c4cccc(OC)c4F)nc23)c1` [Compound 468, 2-(2-fluoro-3-methoxy-phenyl)-N-(3-methoxyphenyl)-1H-imidazo[4,5-c]pyridin-4-amine] belongs 30 to 50%. In the case of `Cn1cc(-c2cc3cnc(Nc4ccc(C#N)cc4)cc3n2C)cn1` [Compound 142, 4-[[1-methyl-2-(1-methylpyrazol-4-yl)pyrrolo[3,2-c]pyridin-6-yl]amino]benzonitrile] it was 50 to 100%; in that of `c1ccc(Cn2cnc3c(NC4CCCCC4)nccc32)cc1` [Compound 449, 1-benzyl-N-cyclohexyl-imidazo[4,5-c]pyridin-4-amine], 50 to 100%. For the compound `CC(=O)Nc1cccc(Nc2cc3[nH]c(-c4ccc(C(=O)N(C)C)cc4)cc3cn2)c1` [Compound 41, 4-[6-(3-acetamidoanilino)-1H-pyrrolo[3,2-c]pyridin-2-yl]-N,N-dimethyl-benzamide], the Emax was greater than 100%. In the case of `Cn1c(NCc2ccccc2F)nc2cnc(-c3cccs3)cc21` [Compound 658, N-[(2-fluorophenyl)methyl]-1-methyl-6-(2-thienyl)imidazo[4,5-c]pyridin-2-amine], the Emax was 50 to 100%.

As for `CC(=O)Nc1ccc(Nc2nccc3[nH]c(-c4cccnc4)cc23)cc1` [Compound 231, N-[4-[[2-(3-pyridyl)-1H-pyrrolo[3,2-c]pyridin-4-yl]amino]phenyl]acetamide], the Emax is greater than 100%. As for `c1cncc(Nc2nccc3[nH]c(-c4ccco4)nc23)c1` [Compound 465, 2-(2-furyl)-N-(3-pyridyl)-1H-imidazo[4,5-c]pyridin-4-amine], the Emax fell in the range of 0 to 30%. With `COc1cccc(-c2nc3c(Nc4ccc(F)c(Cl)c4)nccc3[nH]2)c1F` [Compound 474, N-(3-chloro-4-fluoro-phenyl)-2-(2-fluoro-3-methoxy-phenyl)-1H-imidazo[4,5-c]pyridin-4-amine], the Emax was in the range of 30 to 50%. In the case of `CC(=O)c1cccc(-c2cc3c(cn2)nc(NCc2ccccc2F)n3C)c1` [Compound 747, 1-[3-[2-[(2-fluorophenyl)methylamino]-1-methyl-imidazo[4,5-c]pyridin-6-yl]phenyl]ethanone] it was 0 to 30%; in that of `CN(C)C(=O)c1ccc(-c2cc3c(Nc4ccc(C(N)=O)cc4)nccc3n2C)cc1` [Compound 213, 4-[4-(4-carbamoylanilino)-1-methyl-pyrrolo[3,2-c]pyridin-2-yl]-N,N-dimethyl-benzamide], 50 to 100%; in that of `CS(=O)(=O)c1ccc(Nc2nccc3[nH]c(-c4ccsc4)cc23)cc1` [Compound 268, N-(4-methylsulfonylphenyl)-2-(3-thienyl)-1H-pyrrolo[3,2-c]pyridin-4-amine], 50 to 100%.

`COc1ccc(OC)c(CCNc2nc3cnc(-c4ccncc4)cc3n2C)c1` [Compound 591, N-[2-(2,5-dimethoxyphenyl)ethyl]-1-methyl-6-(4-pyridyl)imidazo[4,5-c]pyridin-2-amine]: the Emax was in the range of 30 to 50%. `CNc1nc2cnc(Nc3ccc4c(c3)OCO4)cc2n1-c1cccc(C(F)(F)F)c1` [Compound 549, N6-(1,3-benzodioxol-5-yl)-N2-methyl-1-[3-(trifluoromethyl)phenyl]imidazo[4,5-c]pyridine-2,6-diamine]: the Emax was 30 to 50%.

`CN(C)c1cccc(Nc2nccc3c2cc(-c2cccnc2)n3C)c1` [Compound 239, N1,N1-dimethyl-N3-[1-methyl-2-(3-pyridyl)pyrrolo[3,2-c]pyridin-4-yl]benzene-1,3-diamine]: the Emax is 30 to 50%.

With `COc1cc(CNc2nccc3[nH]c(-c4ccccc4Cl)nc23)cc(OC)c1OC` [Compound 460, 2-(2-chlorophenyl)-N-[(3,4,5-trimethoxyphenyl)methyl]-1H-imidazo[4,5-c]pyridin-4-amine], the Emax fell in the range of 0 to 30%. In the case of `COc1ccc(Nc2nccc3[nH]c(-c4ccsc4)cc23)cc1` [Compound 259, N-(4-methoxyphenyl)-2-(3-thienyl)-1H-pyrrolo[3,2-c]pyridin-4-amine] it was 50 to 100%; in that of `CN(C)c1ccc(-c2cc3c(Nc4ccncn4)nccc3n2C)cc1` [Compound 229, 2-(4-dimethylaminophenyl)-1-methyl-N-pyrimidin-4-yl-pyrrolo[3,2-c]pyridin-4-amine], greater than 100%; in that of `Cc1cccc(Nc2cc3[nH]c(-c4cncn4C)cc3cn2)c1` [Compound 105, 2-(3-methylimidazol-4-yl)-N-(m-tolyl)-1H-pyrrolo[3,2-c]pyridin-6-amine], 50 to 100%. In the case of `COc1ccc(Nc2nccc3[nH]c(-c4ccc(C)cc4)nc23)cc1OC` [Compound 378, N-(3,4-dimethoxyphenyl)-2-(p-tolyl)-1H-imidazo[4,5-c]pyridin-4-amine] it was 50 to 100%; in that of `COc1ccc(Nc2cc3c(cn2)cc(-c2ccc(C(=O)N(C)C)cc2)n3C)cc1OC` [Compound 46, 4-[6-(3,4-dimethoxyanilino)-1-methyl-pyrrolo[3,2-c]pyridin-2-yl]-N,N-dimethyl-benzamide], 50 to 100%; in that of `CN(C)c1cccc(-c2cc3c(cn2)nc(NCc2ccccc2)n3C)c1` [Compound 620, N-benzyl-6-[3-(dimethylamino)phenyl]-1-methyl-imidazo[4,5-c]pyridin-2-amine], greater than 100%.
